Results from US7659270B2, “Hepatitis C virus inhibitors” (Bristol-Myers Squibb Company, priority 2006, dated 2010).

Each molecule was assayed on HCV 1b-377-neo replicon cells (assay: HCV replicon assay (HCV 1b-377-neo replicon cells)). Conditions: Hepatitis C virus, read-out: EC50 range against HCV 1b (Range).
Format: cell-based, Hepatitis C virus genotype 1b
In short: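 HCV genotype 1b (1b-377-neo) replicon cells, run as a validated replicon assay; parallel testing in replicon cells carrying the NS5A Y2065H resistance mutation.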
With COC(=O)N[C@@H](C)C(=O)N1CCC[C@H]1c1nc(-c2cnc(-c3ccc(-c4cnc([C@@H]5CCCN5C(=O)[C@H](C)NC(=O)OC)[nH]4)cc3)nc2)c[nH]1 [Example D73, methyl ((1S)-2-((2S)-2-(5-(4-(5-(2-((2S)-1-(N-(methoxy-carbonyl)-L-alanyl)-2-pyrroli-dinyl)-1H-imida-zol-5-yl)-2-pyrimi-dinyl)phenyl)-1H-imidazol-2-yl)-1-pyrroli-dinyl)-1-methyl-2-oxoeth-yl)carbamate] the EC50 was 0.01 to 0.999 nM.
COC(=O)N[C@H](C(=O)N1CCC[C@H]1c1nc(-c2cnc(-c3ccc(-c4cnc([C@@H]5CCCN5C(=O)[C@@H](NC(=O)OC)C(C)C)[nH]4)cc3)nc2)c[nH]1)C(C)C [Example D74, methyl ((1S)-1-(((2S)-2-(5-(2-(4-(2-((2S)-1-((2S)-2-((methoxy-carbonyl)amino)-3-methyl-butanoyl)-2-pyrroli-dinyl)-1H-imidazol-5-yl)phenyl)-5-pyrimi-dinyl)-1H-imida-zol-2-yl)-1-pyrroli-dinyl)carbon-yl)-2-methylpro-pyl)carba-mate] was tested, and the EC50 was 0.01 to 0.999 nM.
COC(=O)N[C@H](C(=O)N1CCC[C@H]1c1nc(-c2cnc(-c3ccc(-c4cnc([C@@H]5CCCN5C(=O)[C@@H](NC(=O)OC)C5CC5)[nH]4)cc3)nc2)c[nH]1)C1CC1 [Example D75, methyl ((1S)-1-cyclopropyl-2-((2S)-2-(5-(2-(4-(2-((2S)-1-((2S)-2-cyclopropyl-2-((methoxy-carbonyl)amino)ace-tyl)-2-pyrroli-dinyl)-1H-imidazol-5-yl)phenyl)-5-pyrimi-dinyl)-1H-imida-zol-2-yl)-1-pyrroli-dinyl)-2-oxoeth-yl)carbamate] gave an EC50 of 0.01 to 0.999 nM.
CCN(CC)[C@@H](C(=O)N1CCC[C@H]1c1ncc(-c2ccc(-c3ncc(-c4c[nH]c([C@@H]5CCCN5C(=O)[C@@H](NC(=O)OC)C(C)C)n4)cn3)cc2)[nH]1)c1ccccc1 [Example D76, methyl ((1S)-1-(((2S)-2-(5-(2-(4-(2-((2S)-1-((2R)-2-(diethyl-amino)-2-phenyl-acetyl)-2-pyrroli-dinyl)-1H-imidazol-5-yl)phenyl)-5-pyrimi-dinyl)-1H-imida-zol-2-yl)-1-pyrroli-dinyl)carbon-yl)-2-methylpro-pyl)carba-mate] gave an EC50 of 0.01 to 0.999 nM.
For CCN(CC)[C@@H](C(=O)N1CCC[C@H]1c1ncc(-c2ccc(-c3ncc(-c4c[nH]c([C@@H]5CCCN5C(=O)[C@H](C)NC(=O)OC)n4)cn3)cc2)[nH]1)c1ccccc1 [Example D77, methyl ((1S)-2-((2S)-2-(5-(2-(4-(2-((2S)-1-((2R)-2-(diethyl-amino)-2-phenyl-acetyl)-2-pyrroli-dinyl)-1H-imidazol-5-yl)phenyl)-5-pyrimi-dinyl)-1H-imida-zol-2-yl)-1-pyrrolidinyl)-1-methyl-2-oxoeth-yl)carbamate], the EC50 was 0.01 to 0.999 nM.
COC(=O)N[C@H](C(=O)N1CCCC1c1ncc(-c2cc(C)c(-c3c(C)cc(-c4cnc([C@@H]5CCCN5C(=O)[C@@H](NC(=O)OC)C(C)C)[nH]4)cc3C)c(C)c2)[nH]1)C(C)C (stereo partly shown) [Example F71] gave an EC50 of 0.01 to 0.999 nM.
COC(=O)N[C@@H](C)C(=O)N(C)[C@@H](C)c1ncc(-c2ccc(-c3ccc(-c4[nH]c([C@@H]5CCCN5C(=O)[C@H](C)NC(=O)OC)nc4C(F)(F)F)cc3)cc2)[nH]1 [Example J42.a, methyl ((1S)-2-((2S)-2-(5-(4′-(2-((1S)-1-((N-(methoxy-carbonyl)-L-alanyl)(meth-yl)ami-no)ethyl)-1H-imidazol-5-yl)-4-biphenylyl)-4-(trifluoromethyl)-1H-imida-zol-2-yl)-1-pyrrolidinyl)-1-methyl-2-oxoeth-yl)carbamate] gave an EC50 of 0.01 to 0.999 nM.
COC(=O)NC(C(=O)N1CCC[C@H]1c1ncc(-c2cnc(-c3ccc(-c4[nH]c([C@@H]5CCCN5C(=O)C(NC(=O)OC)c5ccccc5)nc4C(F)(F)F)cc3)nc2)[nH]1)c1ccccc1 (stereo partly drawn) [Example J46, methyl ((1R)-2-((2S)-2-(5-(4-(5-(2-((2S)-1-((2R)-2-((methoxy-carbonyl)amino)-2-phenylacetyl)-2-pyrrolidinyl)-1H-imidazol-5-yl)-2-pyrimi-dinyl)phenyl)-4-(trifluoromethyl)-1H-imida-zol-2-yl)-1-pyrrolidinyl)-2-oxo-1-phenyleth-yl)carbamate] gave an EC50 of 0.01 to 0.999 nM.
In the case of CCN(CC)[C@@H](C(=O)N1CCC[C@H]1c1ncc(-c2cnc(-c3ccc(-c4[nH]c([C@@H]5CCCN5C(=O)[C@@H](c5ccccc5)N(CC)CC)nc4C(F)(F)F)cc3)nc2)[nH]1)c1ccccc1 [Example J47, (1R)-2-((2S)-2-(5-(4-(5-(2-((2S)-1-((2R)-2-(diethylamino)-2-phenylacetyl)-2-pyrrolidinyl)-1H-imidazol-5-yl)-2-pyrimi-dinyl)phenyl)-4-(trifluoromethyl)-1H-imida-zol-2-yl)-1-pyrrolidinyl)-N,N-dieth-yl-2-oxo-1-phenylethanamine], the EC50 is reported as 0.01 to 0.999 nM.
With COC(=O)N[C@H](C(=O)N1CCC[C@H]1c1ncc(-c2cnc(-c3ccc(-c4[nH]c([C@@H]5CCCN5C(=O)[C@@H](NC(=O)OC)C(C)C)nc4C(F)(F)F)cc3)nc2)[nH]1)C(C)C [Example J48, methyl ((1S)-1-(((2S)-2-(5-(2-(4-(2-((2S)-1-((2S)-2-((methoxy-carbonyl)amino)-3-methyl-butanoyl)-2-pyrrolidinyl)-4-(trifluoromethyl)-1H-imidazol-5-yl)phenyl)-5-pyrimidinyl)-1H-imidazol-2-yl)-1-pyrroli-dinyl)carbon-yl)-2-methylpro-pyl)carba-mate] the EC50 was 0.01 to 0.999 nM.
COC(=O)N[C@H](C(=O)N1CCC[C@H]1c1ncc(-c2cnc(-c3ccc(-c4[nH]c([C@@H]5CCCN5C(=O)[C@@H](NC(=O)OC)C5CC5)nc4C(F)(F)F)cc3)nc2)[nH]1)C1CC1 [Example J49, methyl ((1S)-1-cyclopropyl-2-((2S)-2-(5-(4-(5-(2-((2S)-1-((2S)-2-cyclopropyl-2-((methoxy-carbonyl)amino)acetyl)-2-pyrrolidinyl)-1H-imidazol-5-yl)-2-pyrimi-dinyl)phenyl)-4-(trifluoromethyl)-1H-imida-zol-2-yl)-1-pyrrolidinyl)-2-oxoeth-yl)carbamate] showed an EC50 of 0.01 to 0.999 nM.
COC(=O)N[C@@H](C)C(=O)N1CCC[C@H]1c1ncc(-c2cnc(-c3ccc(-c4[nH]c([C@@H]5CCCN5C(=O)[C@H](C)NC(=O)OC)nc4C(F)(F)F)cc3)nc2)[nH]1 [Example J50, methyl ((1S)-2-((2S)-2-(5-(4-(5-(2-((2S)-1-(N-(methoxy-carbonyl)-L-alanyl)-2-pyrrolidinyl)-1H-imidazol-5-yl)-2-pyrimi-dinyl)phenyl)-4-(trifluoromethyl)-1H-imida-zol-2-yl)-1-pyrrolidinyl)-1-methyl-2-oxoeth-yl)carbamate] showed an EC50 of 0.01 to 0.999 nM.
CCN(CC)[C@H](C)C(=O)N1CCC[C@H]1c1ncc(-c2cnc(-c3ccc(-c4[nH]c([C@@H]5CCCN5C(=O)[C@H](C)N(CC)CC)nc4C(F)(F)F)cc3)nc2)[nH]1 [Example J51, (2R)-1-((2S)-2-(5-(4-(5-(2-((2S)-1-((2R)-2-(diethyl-amino)prop-anoyl)-2-pyrrolidinyl)-1H-imidazol-5-yl)-2-pyrimi-dinyl)phenyl)-4-(trifluoromethyl)-1H-imida-zol-2-yl)-1-pyrrolidinyl)-N,N-dieth-yl-1-oxo-2-propanamine] was tested, and the EC50 was 1 to 99 nM.
